IC50 data for 21 molecules are collected here from patent US20260166039A1 (SCHRÖDINGER, INC., priority 2022, published 2026).

Each structure is given as a SMILES string. Like-named read-outs stand apart in the source and are kept apart here.

As a reminder, the IC50 is the concentration at which inhibition is half-maximal.

One assay addresses T1, Wee1 kinase domain (Homo sapiens, UniProt P30291).
T1 construct: Wee1 kinase domain was purchased from Carna (catalog #05-177); purchased Carna 05-177
Briefly: Wee1 Kinase Biochemical Assay (ADP-Glo). As to conditions: 15 uM ATP. In outline:
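ADP-Glo luminescence readout of ADP produced by 1 nM kinase domain phosphorylating Poly(Lys,Tyr 4:1) (2 ng/mL) at 15 uM ATP. Reaction ran 4 h, 25 °C, in Tris/MgCl2 buffer with BSA and DTT. Inhibition scaled between DMSO (high) and saturating control inhibitor (low).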

Assay [1] deals with phosphorylation of Cdc2 Y15 (Wee1 substrate) in A427 cells. Nature of the assay: Phosphorylated Cdc2 MSD Electrochemiluminescence Assay. Format: cell-based. The conditions noted are these: Homo sapiens. A digest of the protocol: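 Read-out: percent residual phospho-Cdc2 Y15 relative to DMSO and positive-control Wee1 inhibitor, measured by MSD electrochemiluminescence capture/detection antibody assay in cell lysates. A427 cells received duplicate 3-fold compound dilution series 20 h post-seeding, with 6 h total incubation at 37 °C.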

[2] abbreviates: class symbols, 1 nM Wee1 enzyme, 4 hours at 25° C.
[3] abbreviates: A-427, class symbols, read-out: A427 pCDC2 MSD IC50.

T1 sequence (P30291 299-569 limits assumed): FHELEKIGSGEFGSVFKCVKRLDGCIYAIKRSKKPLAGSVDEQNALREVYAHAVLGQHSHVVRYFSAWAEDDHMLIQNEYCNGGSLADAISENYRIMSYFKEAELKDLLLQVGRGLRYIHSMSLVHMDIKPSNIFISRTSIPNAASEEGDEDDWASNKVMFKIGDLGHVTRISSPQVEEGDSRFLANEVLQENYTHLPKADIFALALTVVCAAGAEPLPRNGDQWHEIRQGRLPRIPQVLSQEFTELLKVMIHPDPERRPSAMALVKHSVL

`Cn1ccc(Nc2ncc3c(n2)N(c2cccc(P(C)(C)=O)n2)[C@@H]2CC(C)(C)OC[C@]32C)cc1=O` (single isomer, unassigned) [Example 779]: the IC50 against Wee1 kinase domain (setting [2]) was below 0.01 µM; in assay [1] (setting [3]), below 0.1 µM.
On to `CC1(C)C[C@H]2N(c3cccc(N=S(C)(C)=O)n3)c3nc(Nc4ccc(O[C@@H]5CCNC5)cc4)ncc3[C@@]2(C)CO1` (single isomer, unassigned) [Example 155], for which the IC50 against Wee1 kinase domain (Wee1 kinase domain, ADP-Glo) is below 0.01 µM; in assay [1] (A-427, pCDC2 MSD) it was 0.1 to 1 µM.
`CN1C[C@H]2C[C@@H]1CN2c1ccc(Nc2ncc3c(n2)N(c2cccc(N4CCOC4=O)n2)[C@@H]2CC(C)(C)OC[C@]32C)cc1` (single isomer, unassigned) [Example 593]: the IC50 was below 0.01 µM at Wee1 kinase domain (setting [2]) and 0.1 to 1 µM in assay [1] (setting [3]).
Regarding `C[C@H]1COC(=O)N1c1cccc(N2c3nc(Nc4ccn(C5CCN(C)CC5)c(=O)c4)ncc3[C@@]3(C)COC(C)(C)C[C@@H]23)n1` (single isomer, unassigned) [Example 273], the half-maximal inhibitory concentration (IC50) on Wee1 kinase domain (Wee1 kinase domain, ADP-Glo) was below 0.01 µM; in assay [1] (A-427, pCDC2 MSD), 0.1 to 1 µM.
Regarding `CC1(C)C[C@H]2N(c3cccc(N=S(C)(C)=O)n3)c3nc(Nc4cnccn4)ncc3[C@@]2(C)CO1` (single isomer, unassigned) [Example 366], the IC50 against Wee1 kinase domain (Wee1 kinase domain, ADP-Glo) was below 0.01 µM; in assay [1] (A-427, pCDC2 MSD) it was 1 to 10 µM.
On to `CN1C[C@H]2C[C@@H]1CN2c1ccc(Nc2ncc3c(n2)N(c2cccc(P(C)(C)=O)n2)[C@@H]2CC(C)(C)OC[C@]32C)cc1` [Example 778, dimethyl(6-((4bR,8aR)-4b,7,7-trimethyl-2-((4-((1R,4R)-5-methyl-2,5-diazabicyclo[2.2.1]heptan-2-yl)phenyl)amino)-4b,7,8,8a-tetrahydropyrano[3′,4′:4,5]pyrrolo[2,3-d]pyrimidin-9(5H)-yl)pyridin-2-yl)phosphine oxide], for which the IC50 was below 0.01 µM against Wee1 kinase domain (setting [2]) and 0.1 to 1 µM in assay [1] (setting [3]).
In the case of `CN(C)Cc1cccc(N2c3nc(Nc4ccc(C(C)(C)C(=O)O)cc4)ncc3[C@@]3(C)COC(C)(C)C[C@@H]23)n1` [Example 611], the IC50 was below 0.01 µM at Wee1 kinase domain (setting [2]) and 1 to 10 µM in assay [1] (setting [3]).
In the case of `CN1C[C@H]2C[C@@H]1CN2c1ccc(Nc2ncc3c(n2)N(c2cccc(N4CCCC4=O)n2)[C@@H]2CC(C)(C)OC[C@]32C)cc1` [Example 631, 1-(6-((4bR,8aR)-4b,7,7-trimethyl-2-((4-((1R,4R)-5-methyl-2,5-diazabicyclo[2.2.1]heptan-2-yl)phenyl)amino)-4b,7,8,8a-tetrahydropyrano[3′,4′:4,5]pyrrolo[2,3-d]pyrimidin-9(5H)-yl)pyridin-2-yl)pyrrolidin-2-one], the IC50 at Wee1 kinase domain (setting [2]) was below 0.01 µM; in assay [1] (setting [3]), 0.1 to 1 µM.
On to `C[C@H]1COC(=O)N1c1cccc(N2c3nc(Nc4ccc(O[C@H]5CCN(C)C5)nc4)ncc3[C@@]3(C)COC(C)(C)C[C@@H]23)n1` (single isomer, unassigned) [Example 281], for which the IC50 is below 0.01 µM on Wee1 kinase domain (Wee1 kinase domain, ADP-Glo) and 0.1 to 1 µM in assay [1] (A-427, pCDC2 MSD).
In the case of `CC1(C)C[C@H]2N(c3cccc(N4CCOC4=O)n3)c3nc(Nc4ccc([C@H]5CNC[C@H]5F)cc4)ncc3[C@@]2(C)CO1` [Example 672, 3-(6-((4bR,8aR)-2-((4-((3S,4S)-4-fluoropyrrolidin-3-yl)phenyl)amino)-4b,7,7-trimethyl-4b,7,8,8a-tetrahydropyrano[3′,4′:4,5]pyrrolo[2,3-d]pyrimidin-9(5H)-yl)pyridin-2-yl)oxazolidin-2-one], the values for the IC50 (at Wee1 kinase domain (setting [2]); in assay [1] (setting [3])) were below 0.01 µM and 0.1 to 1 µM, respectively.
For `CNCc1cccc(N2c3nc(Nc4ccc(N5C[C@@H]6C[C@H]5CO6)cc4)ncc3[C@@]3(C)COC(C)(C)C[C@@H]23)n1` (single isomer, unassigned) [Example 41], the IC50 against Wee1 kinase domain (Wee1 kinase domain, ADP-Glo) was below 0.01 µM; in assay [1] (A-427, pCDC2 MSD), below 0.1 µM.
With `Cc1cc(Nc2ncc3c(n2)N(c2cccc([C@H]4CCCN4)n2)[C@@H]2CC(C)(C)OC[C@]32C)ccc1N1CCOCC1` (single isomer, unassigned) [Example 522], the IC50 against Wee1 kinase domain (setting [2]) is below 0.01 µM; in assay [1] (setting [3]) it was 0.1 to 1 µM.
Turning to `CNCc1cccc(N2c3nc(Nc4ccc([C@@H]5CC(=O)N(C)C5)cc4)ncc3[C@@]3(C)COC(C)(C)C[C@@H]23)n1` (single isomer, unassigned) [Example 69], the IC50 on Wee1 kinase domain (Wee1 kinase domain, ADP-Glo) is below 0.01 µM; in assay [1] (A-427, pCDC2 MSD) it was below 0.1 µM.
The like results for `C[C@H]1COC(=O)N1c1cccc(N2c3nc(Nc4ccc(O[C@@H]5CCN(C)C5)nc4)ncc3[C@@]3(C)COC(C)(C)C[C@@H]23)n1` (single isomer, unassigned) [Example 283] were, in that order, below 0.01 µM and 0.1 to 1 µM.
As to `CC1(C)C[C@H]2N(c3cccc([C@H]4CCCN4)n3)c3nc(Nc4ccn(C5CCOCC5)c(=O)c4)ncc3[C@@]2(C)CO1` (single isomer, unassigned) [Example 394], the IC50 at Wee1 kinase domain (Wee1 kinase domain, ADP-Glo) is below 0.01 µM; in assay [1] (A-427, pCDC2 MSD), 1 to 10 µM.
As for `CN1C[C@H]2C[C@@H]1CN2c1ccc(Nc2ncc3c(n2)N(c2ccn(C)n2)[C@@H]2CC(C)(C)OC[C@]32C)cc1` (single isomer, unassigned) [Example 520], the IC50 was below 0.01 µM against Wee1 kinase domain (setting [2]) and 1 to 10 µM in assay [1] (setting [3]).
Turning to `C[C@H]1COC(=O)N1c1cccc(N2c3nc(Nc4ccc(N5C[C@H]6C[C@@H](C5)N6C)cc4)ncc3[C@@]3(C)COC(C)(C)C[C@@H]23)n1` (single isomer, unassigned) [Example 352], the 50% inhibitory concentration (IC50) is below 0.01 µM on Wee1 kinase domain (Wee1 kinase domain, ADP-Glo) and 0.1 to 1 µM in assay [1] (A-427, pCDC2 MSD).
Turning to `C[C@H]1COC(=O)N1c1cccc(N2c3nc(Nc4ccc(N5C[C@H]6C[C@@H]5CN6C)c(F)c4)ncc3[C@@]3(C)COC(C)(C)C[C@@H]23)n1` (single isomer, unassigned) [Example 291], the IC50 on Wee1 kinase domain (Wee1 kinase domain, ADP-Glo) is below 0.01 µM; in assay [1] (A-427, pCDC2 MSD), 0.1 to 1 µM.
For `CNCc1cccc(N2c3nc(Nc4ccc(N5C[C@@H](C)O[C@@H](C)C5)cc4)ncc3[C@]3(C)COC(C)(C)C[C@H]23)n1` (single isomer, unassigned) [Example 20], in that order: below 0.01 µM and 0.1 to 1 µM.
For `CNCc1cccc(N2c3nc(Nc4ccc(C(=O)N5CCOCC5)cc4)ncc3[C@@]3(C)COC(C)(C)C[C@@H]23)n1` (single isomer, unassigned) [Example 24], in that order: below 0.01 µM and 0.1 to 1 µM.
With `CN1C[C@@H]2C[C@H]1CN2c1ccc(Nc2ncc3c(n2)N(c2ccn(C)n2)[C@@H]2CC(C)(C)OC[C@]32C)cc1` (single isomer, unassigned) [Example 519], the IC50 against Wee1 kinase domain (setting [2]) is below 0.01 µM; in assay [1] (setting [3]), 0.1 to 1 µM.
